Values quoted from earlier work, collected in patent US20100209348A1, “METHODS FOR DETERMINING LIPOSOME BIOEQUIVALENCE” (Arondo Pharma, Inc., priority 2009, published 2010).
Structures can show the parent of a compound that is named as a salt.

Details: IV infusion up to 60 min, up to 60 mg/m^2 every 3 weeks (dose rate 20 mg/m^2/week)

## COc1cccc2c1C(=O)c1c(O)c3c(c(O)c1C2=O)C[C@@](O)(C(=O)CO)C[C@@H]3O[C@H]1C[C@H](N)[C@H](O)[C@H](C)O1 [doxorubicin, Doxorubicin HCl]
  clinically significant PPE: does not typically cause clinically significant PPE
